Measured values as given in ChEMBL document CHEMBL6071170, “Development of novel focal adhesion kinase (FAK) inhibitors for targeting cancer: Structural insights and therapeutic potential” (Eur J Med Chem, 2024).
Values belong to the compound of their own block, whether it stands above or below them.

Tests used:
[1] = biological target: Fibroblast growth factor receptor (Homo sapiens, UniProt P22607+P11362+P22455+P21802); assay: Inhibition of human recombinant FGFR by FRET assay; format: protein assay
[2] = biological target: T1, Focal adhesion kinase 1 (Homo sapiens, UniProt Q05397); assay: Inhibition of N-terminal his-tagged human (1 to 422 residues) FAK
[3] = biological target: Protein cereblon/Focal adhesion kinase 1 (Homo sapiens, UniProt Q05397+Q96SW2); assay: PROTAC activity at CRBN/FAK in human PC3 cells assessed as protein degradation incubated for 12 hrs by Western blot analysis relative to control; format: cell-based; details: pc-3
[4] = biological target: T1, Focal adhesion kinase 1; assay: Inhibition of FAK (unknown origin)
[5] = Oral bioavailability in mouse; format: ADME, organism-based; details: in vivo
[6] = biological target: T1, Focal adhesion kinase 1; assay: Inhibition of FAK (unknown origin) by ADP-Glo kinase assay
[7] = biological target: Epidermal growth factor receptor (Homo sapiens, UniProt P00533, T790M); assay: Inhibition of EGFR T790M mutant (unknown origin)
[8] = biological target: T1, Focal adhesion kinase 1; assay: Inhibition of human FAK by FRET assay
[9] = Plasma stability in human assessed as half life by LC-MS/MS analysis; format: ADME, cell-free
[10] = biological target: Serine/threonine-protein kinase PLK1 (Homo sapiens, UniProt P53350); assay: Inhibition of PLK1 (unknown origin)
[11] = biological target: T1, Focal adhesion kinase 1; assay: Inhibition of FAK (unknown origin) by FRET analysis
[12] = biological target: T2, Protein deacetylase HDAC6 (Homo sapiens, UniProt Q9UBN7); assay: Inhibition of HDAC6 (unknown origin)
T2 sequence (Q9UBN7 whole entry): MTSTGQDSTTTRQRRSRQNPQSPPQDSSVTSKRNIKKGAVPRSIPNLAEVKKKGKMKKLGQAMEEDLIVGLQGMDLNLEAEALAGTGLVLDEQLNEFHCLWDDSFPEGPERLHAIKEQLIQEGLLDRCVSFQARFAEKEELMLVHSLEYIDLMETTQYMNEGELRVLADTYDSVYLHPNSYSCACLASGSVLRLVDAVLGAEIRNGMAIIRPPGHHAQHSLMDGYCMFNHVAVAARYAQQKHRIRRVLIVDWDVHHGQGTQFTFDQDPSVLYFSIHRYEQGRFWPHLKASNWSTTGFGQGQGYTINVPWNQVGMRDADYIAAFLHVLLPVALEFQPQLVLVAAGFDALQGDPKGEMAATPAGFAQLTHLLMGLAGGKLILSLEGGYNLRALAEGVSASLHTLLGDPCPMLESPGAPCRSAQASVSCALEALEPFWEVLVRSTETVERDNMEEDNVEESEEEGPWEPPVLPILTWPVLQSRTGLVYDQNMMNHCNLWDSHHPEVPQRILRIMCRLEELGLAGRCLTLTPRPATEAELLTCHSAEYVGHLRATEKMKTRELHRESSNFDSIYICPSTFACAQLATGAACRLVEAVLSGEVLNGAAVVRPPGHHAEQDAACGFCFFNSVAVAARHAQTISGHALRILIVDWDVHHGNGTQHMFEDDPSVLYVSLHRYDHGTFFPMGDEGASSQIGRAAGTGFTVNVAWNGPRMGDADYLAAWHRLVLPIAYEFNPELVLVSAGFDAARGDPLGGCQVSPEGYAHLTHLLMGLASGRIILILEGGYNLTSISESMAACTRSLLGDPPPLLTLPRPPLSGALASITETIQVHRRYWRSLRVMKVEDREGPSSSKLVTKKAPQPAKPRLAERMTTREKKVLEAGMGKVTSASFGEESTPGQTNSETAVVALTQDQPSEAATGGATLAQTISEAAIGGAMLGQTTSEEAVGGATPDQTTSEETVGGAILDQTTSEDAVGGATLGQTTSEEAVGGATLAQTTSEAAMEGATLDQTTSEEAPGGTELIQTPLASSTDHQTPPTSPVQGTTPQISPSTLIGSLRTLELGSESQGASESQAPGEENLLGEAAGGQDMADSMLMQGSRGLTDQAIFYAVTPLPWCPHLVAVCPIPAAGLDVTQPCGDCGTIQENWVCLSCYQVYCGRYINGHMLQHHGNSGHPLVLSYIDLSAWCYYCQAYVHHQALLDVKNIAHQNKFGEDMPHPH

[13] = test system: BXPC-3; assay: Antiproliferative activity against human BXPC-3 cells; format: functional, cell-based
[14] = biological target: T3, Protein-tyrosine kinase 2-beta (Homo sapiens, UniProt Q14289); assay: Inhibition of PYK2 (unknown origin) by KinomeScan assay
[15] = biological target: T1, Focal adhesion kinase 1; assay: Inhibition of FAK (unknown origin) by HTRF assay
[16] = biological target: ALK tyrosine kinase receptor (Homo sapiens, UniProt Q9UM73); assay: Inhibition of ALK (unknown origin)
[17] = biological target: Proto-oncogene tyrosine-protein kinase ROS (Homo sapiens, UniProt P08922); assay: Inhibition of ROS1 (unknown origin)
[18] = biological target: T3, Protein-tyrosine kinase 2-beta; assay: Inhibition of PYK2 (unknown origin)
[19] = biological target: T1, Focal adhesion kinase 1; assay: Binding affinity to FAK (unknown origin) assessed as inhibition constant

T1 sequence (Q05397 whole entry, the tested form may be a part): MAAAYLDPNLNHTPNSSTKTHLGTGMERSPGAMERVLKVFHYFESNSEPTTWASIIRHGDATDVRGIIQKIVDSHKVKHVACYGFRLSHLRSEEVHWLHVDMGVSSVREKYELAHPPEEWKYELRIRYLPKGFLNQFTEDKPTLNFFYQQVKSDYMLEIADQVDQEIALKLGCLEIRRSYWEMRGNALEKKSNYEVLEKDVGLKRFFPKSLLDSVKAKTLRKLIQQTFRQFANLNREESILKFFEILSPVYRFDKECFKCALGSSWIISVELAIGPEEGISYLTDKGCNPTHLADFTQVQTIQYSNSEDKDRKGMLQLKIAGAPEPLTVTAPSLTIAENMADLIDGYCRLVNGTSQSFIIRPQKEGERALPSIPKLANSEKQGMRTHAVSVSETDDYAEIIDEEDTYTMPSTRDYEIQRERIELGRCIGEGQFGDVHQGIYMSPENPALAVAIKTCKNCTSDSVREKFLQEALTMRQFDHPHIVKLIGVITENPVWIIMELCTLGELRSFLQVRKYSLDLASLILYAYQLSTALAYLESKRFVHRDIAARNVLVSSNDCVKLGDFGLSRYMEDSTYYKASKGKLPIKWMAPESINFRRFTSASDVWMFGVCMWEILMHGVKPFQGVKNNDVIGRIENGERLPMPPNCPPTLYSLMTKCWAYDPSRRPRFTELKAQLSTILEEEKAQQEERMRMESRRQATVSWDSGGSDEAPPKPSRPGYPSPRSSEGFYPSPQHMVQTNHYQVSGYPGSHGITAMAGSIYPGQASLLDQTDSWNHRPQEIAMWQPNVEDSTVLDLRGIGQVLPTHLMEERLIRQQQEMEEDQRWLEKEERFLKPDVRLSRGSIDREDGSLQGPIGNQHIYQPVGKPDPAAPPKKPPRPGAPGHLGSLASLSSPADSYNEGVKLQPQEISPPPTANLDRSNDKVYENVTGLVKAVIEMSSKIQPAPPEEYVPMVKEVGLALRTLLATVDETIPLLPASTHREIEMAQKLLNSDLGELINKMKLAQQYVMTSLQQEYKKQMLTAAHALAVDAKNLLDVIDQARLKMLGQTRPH
T3 sequence (Q14289 whole entry): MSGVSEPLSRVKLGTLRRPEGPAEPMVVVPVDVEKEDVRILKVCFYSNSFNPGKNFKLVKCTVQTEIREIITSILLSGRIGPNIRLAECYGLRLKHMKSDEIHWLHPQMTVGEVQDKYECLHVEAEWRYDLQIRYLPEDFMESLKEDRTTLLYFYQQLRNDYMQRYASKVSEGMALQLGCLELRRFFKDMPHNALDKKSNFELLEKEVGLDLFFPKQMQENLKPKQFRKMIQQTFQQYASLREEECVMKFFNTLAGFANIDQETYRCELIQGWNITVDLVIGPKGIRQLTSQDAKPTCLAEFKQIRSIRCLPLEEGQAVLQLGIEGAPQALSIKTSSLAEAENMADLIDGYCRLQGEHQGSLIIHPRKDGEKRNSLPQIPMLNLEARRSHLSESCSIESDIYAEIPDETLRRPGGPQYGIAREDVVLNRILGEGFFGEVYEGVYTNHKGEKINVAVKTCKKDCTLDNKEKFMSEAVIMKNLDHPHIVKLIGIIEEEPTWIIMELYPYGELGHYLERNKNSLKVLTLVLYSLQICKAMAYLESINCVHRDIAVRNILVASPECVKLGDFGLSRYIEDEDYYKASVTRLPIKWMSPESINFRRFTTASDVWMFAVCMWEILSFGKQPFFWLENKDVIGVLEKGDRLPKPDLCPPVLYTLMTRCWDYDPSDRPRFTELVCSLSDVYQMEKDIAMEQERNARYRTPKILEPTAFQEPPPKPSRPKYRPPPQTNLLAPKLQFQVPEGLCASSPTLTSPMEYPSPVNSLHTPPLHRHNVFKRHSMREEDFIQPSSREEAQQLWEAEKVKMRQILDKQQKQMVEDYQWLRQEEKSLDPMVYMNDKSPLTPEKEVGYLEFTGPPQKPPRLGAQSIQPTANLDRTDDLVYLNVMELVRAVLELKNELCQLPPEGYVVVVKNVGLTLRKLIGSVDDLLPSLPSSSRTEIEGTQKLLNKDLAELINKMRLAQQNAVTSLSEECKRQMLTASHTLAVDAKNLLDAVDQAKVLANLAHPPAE
Proto-oncogene tyrosine-protein kinase ROS, sequence (P08922 whole entry): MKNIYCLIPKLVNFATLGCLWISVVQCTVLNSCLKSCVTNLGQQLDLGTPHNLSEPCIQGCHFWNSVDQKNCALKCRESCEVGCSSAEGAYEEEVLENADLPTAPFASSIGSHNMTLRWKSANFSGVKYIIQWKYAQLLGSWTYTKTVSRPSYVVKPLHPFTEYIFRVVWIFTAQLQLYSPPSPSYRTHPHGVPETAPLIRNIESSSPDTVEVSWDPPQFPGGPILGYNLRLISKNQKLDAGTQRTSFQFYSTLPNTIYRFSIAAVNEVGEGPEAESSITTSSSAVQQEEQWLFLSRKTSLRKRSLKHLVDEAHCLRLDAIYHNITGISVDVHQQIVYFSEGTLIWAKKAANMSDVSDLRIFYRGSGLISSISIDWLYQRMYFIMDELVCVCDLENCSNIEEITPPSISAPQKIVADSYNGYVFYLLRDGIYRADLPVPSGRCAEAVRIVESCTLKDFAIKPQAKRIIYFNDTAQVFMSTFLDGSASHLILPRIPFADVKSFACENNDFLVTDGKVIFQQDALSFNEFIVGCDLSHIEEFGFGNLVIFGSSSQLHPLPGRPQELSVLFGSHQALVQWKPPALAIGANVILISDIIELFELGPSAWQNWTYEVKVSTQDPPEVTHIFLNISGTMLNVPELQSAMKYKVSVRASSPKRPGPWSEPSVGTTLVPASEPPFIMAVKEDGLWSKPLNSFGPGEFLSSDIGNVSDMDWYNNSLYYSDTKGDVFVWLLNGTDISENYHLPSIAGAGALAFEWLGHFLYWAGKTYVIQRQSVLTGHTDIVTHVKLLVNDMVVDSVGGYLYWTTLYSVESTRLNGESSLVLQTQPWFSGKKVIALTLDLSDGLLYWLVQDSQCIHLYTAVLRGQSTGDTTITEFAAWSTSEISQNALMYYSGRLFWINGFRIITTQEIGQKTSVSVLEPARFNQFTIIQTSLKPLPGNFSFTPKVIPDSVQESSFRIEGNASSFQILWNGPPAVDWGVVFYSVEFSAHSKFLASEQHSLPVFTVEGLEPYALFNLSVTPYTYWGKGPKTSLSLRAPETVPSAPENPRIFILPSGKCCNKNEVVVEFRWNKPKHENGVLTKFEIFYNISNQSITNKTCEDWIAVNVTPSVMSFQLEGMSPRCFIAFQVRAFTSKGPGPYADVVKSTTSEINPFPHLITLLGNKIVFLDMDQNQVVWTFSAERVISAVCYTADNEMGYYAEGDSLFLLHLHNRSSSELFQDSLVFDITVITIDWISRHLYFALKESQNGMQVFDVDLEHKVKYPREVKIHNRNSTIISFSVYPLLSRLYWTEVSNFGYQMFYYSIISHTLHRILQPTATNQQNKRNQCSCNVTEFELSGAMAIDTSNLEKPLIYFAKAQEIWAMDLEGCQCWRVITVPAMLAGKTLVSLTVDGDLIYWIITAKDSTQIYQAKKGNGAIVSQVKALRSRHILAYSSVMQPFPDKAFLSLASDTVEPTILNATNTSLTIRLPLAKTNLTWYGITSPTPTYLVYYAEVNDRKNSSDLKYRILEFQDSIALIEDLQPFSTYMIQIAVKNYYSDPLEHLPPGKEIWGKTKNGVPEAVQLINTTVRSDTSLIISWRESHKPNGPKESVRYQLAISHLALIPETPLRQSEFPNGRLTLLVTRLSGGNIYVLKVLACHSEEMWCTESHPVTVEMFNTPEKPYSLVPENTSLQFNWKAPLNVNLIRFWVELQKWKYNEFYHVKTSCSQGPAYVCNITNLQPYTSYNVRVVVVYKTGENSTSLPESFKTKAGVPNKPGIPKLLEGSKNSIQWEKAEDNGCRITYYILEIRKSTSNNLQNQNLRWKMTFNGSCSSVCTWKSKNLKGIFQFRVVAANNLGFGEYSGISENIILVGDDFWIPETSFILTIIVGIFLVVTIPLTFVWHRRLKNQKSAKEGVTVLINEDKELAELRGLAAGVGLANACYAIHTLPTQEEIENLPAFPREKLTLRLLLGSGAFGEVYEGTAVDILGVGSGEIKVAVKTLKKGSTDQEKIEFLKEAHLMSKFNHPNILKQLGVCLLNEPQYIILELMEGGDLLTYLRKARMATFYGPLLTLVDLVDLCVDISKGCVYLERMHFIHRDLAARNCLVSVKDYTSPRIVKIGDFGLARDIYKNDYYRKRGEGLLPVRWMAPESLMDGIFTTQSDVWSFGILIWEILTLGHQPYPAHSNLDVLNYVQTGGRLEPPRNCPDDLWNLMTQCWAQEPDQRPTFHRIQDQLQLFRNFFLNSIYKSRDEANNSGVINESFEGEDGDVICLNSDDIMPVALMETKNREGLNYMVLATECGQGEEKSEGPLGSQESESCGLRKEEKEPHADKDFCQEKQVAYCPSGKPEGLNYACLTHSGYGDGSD
Protein cereblon/Focal adhesion kinase 1, sequence (Q05397 whole entry): as the sequence (Q05397 whole entry, the tested form may be a part) above
Protein cereblon/Focal adhesion kinase 1, sequence (Q96SW2 whole entry): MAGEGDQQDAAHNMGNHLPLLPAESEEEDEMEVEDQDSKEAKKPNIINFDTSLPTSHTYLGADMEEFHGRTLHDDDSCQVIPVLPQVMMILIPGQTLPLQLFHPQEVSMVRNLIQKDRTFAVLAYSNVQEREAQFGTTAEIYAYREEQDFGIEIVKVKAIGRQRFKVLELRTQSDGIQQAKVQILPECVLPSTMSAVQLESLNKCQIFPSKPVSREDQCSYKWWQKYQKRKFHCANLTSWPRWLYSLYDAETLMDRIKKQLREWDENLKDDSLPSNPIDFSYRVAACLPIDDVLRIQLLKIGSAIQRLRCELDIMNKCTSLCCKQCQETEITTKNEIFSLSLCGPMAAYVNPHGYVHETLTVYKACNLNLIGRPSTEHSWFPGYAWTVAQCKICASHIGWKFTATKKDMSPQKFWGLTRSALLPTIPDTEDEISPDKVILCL

IC50 [1]: 0.37 µM
SMILES: CNC(=O)c1ccccc1Nc1ncnc(Nc2cc(OC)c(OC)c(OC)c2)n1

SMILES: OCC[N+]12CN3CN(CN(C3)C1)C2
IC50 [2]: 0.05 µM

DC50 [3]: 0.003 µM
SMILES: Cc1ncsc1-c1ccc(CNC(=O)[C@@H]2C[C@@H](O)CN2C(=O)[C@@H](NC(=O)CCOCCOc2ccc(Nc3ncc(C(F)(F)F)c(NCc4cccc(N(C)S(C)(=O)=O)c4)n3)cc2)C(C)(C)C)cc1

IC50 [4]: 0.026 µM
SMILES: CNC(=O)c1ccccc1Nc1cc(Nc2cc(C)c(C3CCN(CCCCCCNC(=O)COc4cccc5c4C(=O)N(C4CCC(=O)NC4=O)C5=O)CC3)cc2OC(C)C)ncc1C(F)(F)F (stereo not drawn)

bioavailability [5]: 21%
SMILES: C=CC(=O)NCCNc1c(NCc2ccc(Nc3ncc(Cl)c(Nc4ccccc4C(=O)NC)n3)cc2)c(=O)c1=O

IC50 [6]: 0.00103 µM
IC50 [7]: 0.00389 µM
SMILES: CNC(=O)c1ccccc1Nc1nc(Nc2ccc(NC(=O)CN3CCOCC3)c(C)c2)ncc1Cl

IC50 [8]: 0.00158 µM
SMILES: CNC(=O)c1ccccc1Nc1cc(Nc2ccc(N3CCN(CC(=O)N[C@H](C(=O)N4C[C@H](O)C[C@H]4C(=O)N[C@@H](C)c4ccc(-c5scnc5C)cc4)C(C)(C)C)CC3)cc2OC)ncc1C(F)(F)F

half-life [9]: > 3.25 h
SMILES: CN(c1ncccc1CNc1nc(Nc2ccc(N3CCN(CCCCCCC(=O)NCCNc4cccc5c4C(=O)N(C4CCC(=O)NC4=O)C5=O)CC3)cc2)ncc1C(F)(F)F)S(C)(=O)=O (stereo not drawn)

IC50 [4]: 0.086 µM
IC50 [10]: 0.079 µM
SMILES: O=C(CSC1Nc2ccccc2C(=O)N1c1ccccc1)N1CCN(c2ccccc2Cl)CC1 (stereo not drawn)

IC50 [11]: 0.132 µM
IC50 [12]: 0.016 µM
SMILES: CNC(=O)c1ccccc1Nc1cc(Nc2ccc(NC(=O)CCCCCCC(=O)NO)cc2)ncc1Cl

IC50 [13]: 1.04 µM
SMILES: Cn1cc(-c2nn3cc(-c4ccco4)nc3s2)c2ccccc21

IC50 [14]: 0.623 µM
SMILES: CNC(=O)c1ccccc1Nc1cc(Nc2cc(C)c(C3CCNCC3)cc2OC(C)C)ncc1C(F)(F)F

IC50 [4]: 0.0191 µM
SMILES: CNC(=O)c1ccccc1Nc1nc(Nc2ccc(N3CCN(C)CC3)cc2)nc2[nH]ccc12

IC50 [15]: 0.0099 µM
SMILES: Clc1cccc(Cn2ccc3cnc(Nc4ccc(N5CCNCC5)cc4)nc32)c1

IC50 [4]: 0.045 µM
SMILES: O=C1CCc2cccc(Oc3nc(Nc4ccc(N5CCN(C(=S)SCCCN6CCOCC6)CC5)cc4)ncc3C(F)(F)F)c21

IC50 [4]: 0.0054 µM
IC50 [16]: 0.0016 µM
IC50 [17]: 0.00081 µM
SMILES: Cc1cc(Nc2ncc(Cl)c(Nc3ccccc3S(=O)(=O)C(C)C)n2)c(OC(C)C)cc1C1=CCN(C2CCOCC2)CC1 [APG-2449]

IC50 [18]: 0.0006 µM
SMILES: CNC(=O)c1ccc(Nc2ncc(C(F)(F)F)c(NCc3nccnc3N(C)S(C)(=O)=O)n2)cc1 [DEFACTINIB]

Ki [19]: 0.0004 µM
SMILES: CONC(=O)c1ccccc1Nc1cc(Nc2cc(C)nn2C(C)C)ncc1Cl [GSK-2256098]
